Results from patent US8168651B2, “Protein kinase modulators” (Cylene Pharmaceuticals, Inc., priority 2008, dated 2012).

What was measured:
Assay in all cases: Standardized radiometric kinase assays, percentage of activity at 0.5 μM;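 further: Read-out is ³³P-labelled substrate protein phosphorylated by each kinase, captured on filters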
[1] = molecular target: each individual kinase of the panel (Homo sapiens, UniProt Q13976)
[2] = molecular target: each individual kinase of the panel (Homo sapiens, UniProt Q99683)
[3] = molecular target: each individual kinase of the panel (Homo sapiens, UniProt Q13464)
[4] = molecular target: each individual kinase of the panel (Homo sapiens, UniProt O15111)
[5] = molecular target: each individual kinase of the panel (Homo sapiens, UniProt O43318)
[6] = molecular target: each individual kinase of the panel (Homo sapiens, UniProt P49137)
[7] = molecular target: each individual kinase of the panel (Homo sapiens, UniProt Q86V86)
[8] = molecular target: each individual kinase of the panel (Homo sapiens, UniProt P42345)
[9] = molecular target: each individual kinase of the panel (Homo sapiens, UniProt P10721, D816H)
[10] = molecular target: each individual kinase of the panel (Homo sapiens, UniProt P16591)
[11] = molecular target: each individual kinase of the panel (Homo sapiens, UniProt Q92630)
[12] = molecular target: each individual kinase of the panel (Homo sapiens, UniProt O43293)
[13] = molecular target: each individual kinase of the panel (Homo sapiens, UniProt Q9HCP0)
[14] = molecular target: each individual kinase of the panel (Homo sapiens, UniProt P04049)
[15] = molecular target: each individual kinase of the panel (Homo sapiens, UniProt P11309)
[16] = molecular target: each individual kinase of the panel (Homo sapiens, UniProt Q15418)
[17] = molecular target: each individual kinase of the panel (Homo sapiens, UniProt P10721, V560G)
[18] = molecular target: each individual kinase of the panel (Homo sapiens, UniProt P51812)
[19] = molecular target: each individual kinase of the panel (Homo sapiens, UniProt Q06418)
[20] = molecular target: each individual kinase of the panel (Homo sapiens, UniProt Q13043)
[21] = molecular target: each individual kinase of the panel (Homo sapiens, UniProt Q9UEE5)
[22] = molecular target: each individual kinase of the panel (Homo sapiens, UniProt Q02763)
[23] = molecular target: each individual kinase of the panel (Homo sapiens, UniProt P28482)
[24] = molecular target: each individual kinase of the panel (Homo sapiens, UniProt P09619)
[25] = molecular target: each individual kinase of the panel (Homo sapiens, UniProt P54756)
[26] = molecular target: each individual kinase of the panel (Homo sapiens, UniProt P07947)
[27] = molecular target: each individual kinase of the panel (Homo sapiens, UniProt P00533, L858R/T790M)
[28] = molecular target: each individual kinase of the panel (Homo sapiens, UniProt P00533, L858R)

each individual kinase of the panel (Homo sapiens, UniProt Q06418), sequence (Q06418 41-890 limits assumed): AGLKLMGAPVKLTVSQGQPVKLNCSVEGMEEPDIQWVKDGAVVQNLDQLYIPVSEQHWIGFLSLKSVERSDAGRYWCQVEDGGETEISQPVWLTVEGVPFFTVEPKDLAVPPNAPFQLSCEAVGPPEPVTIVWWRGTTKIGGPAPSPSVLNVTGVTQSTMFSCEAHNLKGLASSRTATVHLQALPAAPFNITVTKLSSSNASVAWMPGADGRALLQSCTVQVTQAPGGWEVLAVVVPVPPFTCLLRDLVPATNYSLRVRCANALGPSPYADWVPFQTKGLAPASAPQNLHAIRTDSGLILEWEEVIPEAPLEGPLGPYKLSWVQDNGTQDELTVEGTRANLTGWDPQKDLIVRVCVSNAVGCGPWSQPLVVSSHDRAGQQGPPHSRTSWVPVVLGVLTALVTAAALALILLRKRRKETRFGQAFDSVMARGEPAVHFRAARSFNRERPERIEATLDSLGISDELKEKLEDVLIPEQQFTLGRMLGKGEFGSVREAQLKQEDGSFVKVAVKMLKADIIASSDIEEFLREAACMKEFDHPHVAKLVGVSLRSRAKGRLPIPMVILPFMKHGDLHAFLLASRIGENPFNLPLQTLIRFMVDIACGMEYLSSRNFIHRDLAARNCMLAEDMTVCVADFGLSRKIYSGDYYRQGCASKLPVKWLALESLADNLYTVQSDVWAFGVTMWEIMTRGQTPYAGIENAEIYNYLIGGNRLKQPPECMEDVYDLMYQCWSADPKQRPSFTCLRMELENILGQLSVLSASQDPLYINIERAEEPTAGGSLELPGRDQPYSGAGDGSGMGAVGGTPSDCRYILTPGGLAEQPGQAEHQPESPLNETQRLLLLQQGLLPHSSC
each individual kinase of the panel (Homo sapiens, UniProt Q13976), sequence (Q13976 2-671 limits assumed): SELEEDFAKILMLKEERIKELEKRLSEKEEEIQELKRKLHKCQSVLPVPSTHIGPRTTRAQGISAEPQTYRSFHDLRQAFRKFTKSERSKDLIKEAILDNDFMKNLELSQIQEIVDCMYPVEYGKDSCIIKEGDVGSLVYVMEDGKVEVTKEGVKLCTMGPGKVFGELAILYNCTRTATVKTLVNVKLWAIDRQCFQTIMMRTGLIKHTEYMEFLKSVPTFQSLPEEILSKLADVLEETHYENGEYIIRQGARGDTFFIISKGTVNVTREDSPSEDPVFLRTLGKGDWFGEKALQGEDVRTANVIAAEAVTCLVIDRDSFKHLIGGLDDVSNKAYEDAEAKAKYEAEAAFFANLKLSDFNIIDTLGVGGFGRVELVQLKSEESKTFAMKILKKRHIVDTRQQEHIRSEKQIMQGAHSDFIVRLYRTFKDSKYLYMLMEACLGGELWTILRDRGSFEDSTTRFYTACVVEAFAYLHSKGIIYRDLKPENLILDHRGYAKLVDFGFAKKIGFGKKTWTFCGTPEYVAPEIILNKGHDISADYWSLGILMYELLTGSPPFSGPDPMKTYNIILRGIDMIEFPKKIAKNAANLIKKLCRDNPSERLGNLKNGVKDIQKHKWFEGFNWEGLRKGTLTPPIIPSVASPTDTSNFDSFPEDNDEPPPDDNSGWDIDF
each individual kinase of the panel (Homo sapiens, UniProt Q02763), sequence (Q02763 23-1124 limits assumed): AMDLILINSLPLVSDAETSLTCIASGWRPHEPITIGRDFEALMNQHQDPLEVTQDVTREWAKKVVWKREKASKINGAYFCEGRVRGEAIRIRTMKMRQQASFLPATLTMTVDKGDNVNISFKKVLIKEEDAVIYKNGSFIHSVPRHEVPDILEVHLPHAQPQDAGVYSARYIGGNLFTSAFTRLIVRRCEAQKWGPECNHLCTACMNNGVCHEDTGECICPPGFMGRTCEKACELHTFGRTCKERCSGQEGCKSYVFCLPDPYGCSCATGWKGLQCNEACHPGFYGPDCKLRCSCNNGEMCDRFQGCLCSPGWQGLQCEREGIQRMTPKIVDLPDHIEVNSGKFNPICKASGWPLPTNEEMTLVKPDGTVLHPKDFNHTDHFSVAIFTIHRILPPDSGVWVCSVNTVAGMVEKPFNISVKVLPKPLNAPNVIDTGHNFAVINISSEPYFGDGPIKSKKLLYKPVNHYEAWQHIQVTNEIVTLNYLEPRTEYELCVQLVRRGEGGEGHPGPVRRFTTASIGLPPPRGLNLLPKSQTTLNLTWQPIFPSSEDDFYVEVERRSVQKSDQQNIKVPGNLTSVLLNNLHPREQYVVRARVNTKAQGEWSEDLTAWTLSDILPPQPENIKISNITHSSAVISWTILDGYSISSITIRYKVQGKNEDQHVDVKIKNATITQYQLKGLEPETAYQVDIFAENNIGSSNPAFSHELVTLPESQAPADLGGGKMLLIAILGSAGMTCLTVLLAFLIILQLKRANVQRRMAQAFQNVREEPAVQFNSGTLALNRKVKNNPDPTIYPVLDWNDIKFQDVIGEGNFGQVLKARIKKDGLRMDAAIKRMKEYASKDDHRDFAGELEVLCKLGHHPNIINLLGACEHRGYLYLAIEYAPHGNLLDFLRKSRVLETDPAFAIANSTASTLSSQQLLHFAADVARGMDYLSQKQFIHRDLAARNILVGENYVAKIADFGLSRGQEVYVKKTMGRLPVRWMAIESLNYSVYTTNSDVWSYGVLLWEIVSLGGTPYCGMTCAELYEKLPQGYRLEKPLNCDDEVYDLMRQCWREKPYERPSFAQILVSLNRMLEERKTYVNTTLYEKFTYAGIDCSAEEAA
each individual kinase of the panel (Homo sapiens, UniProt P10721, V560G), sequence (P10721 26-976 V560G limits assumed): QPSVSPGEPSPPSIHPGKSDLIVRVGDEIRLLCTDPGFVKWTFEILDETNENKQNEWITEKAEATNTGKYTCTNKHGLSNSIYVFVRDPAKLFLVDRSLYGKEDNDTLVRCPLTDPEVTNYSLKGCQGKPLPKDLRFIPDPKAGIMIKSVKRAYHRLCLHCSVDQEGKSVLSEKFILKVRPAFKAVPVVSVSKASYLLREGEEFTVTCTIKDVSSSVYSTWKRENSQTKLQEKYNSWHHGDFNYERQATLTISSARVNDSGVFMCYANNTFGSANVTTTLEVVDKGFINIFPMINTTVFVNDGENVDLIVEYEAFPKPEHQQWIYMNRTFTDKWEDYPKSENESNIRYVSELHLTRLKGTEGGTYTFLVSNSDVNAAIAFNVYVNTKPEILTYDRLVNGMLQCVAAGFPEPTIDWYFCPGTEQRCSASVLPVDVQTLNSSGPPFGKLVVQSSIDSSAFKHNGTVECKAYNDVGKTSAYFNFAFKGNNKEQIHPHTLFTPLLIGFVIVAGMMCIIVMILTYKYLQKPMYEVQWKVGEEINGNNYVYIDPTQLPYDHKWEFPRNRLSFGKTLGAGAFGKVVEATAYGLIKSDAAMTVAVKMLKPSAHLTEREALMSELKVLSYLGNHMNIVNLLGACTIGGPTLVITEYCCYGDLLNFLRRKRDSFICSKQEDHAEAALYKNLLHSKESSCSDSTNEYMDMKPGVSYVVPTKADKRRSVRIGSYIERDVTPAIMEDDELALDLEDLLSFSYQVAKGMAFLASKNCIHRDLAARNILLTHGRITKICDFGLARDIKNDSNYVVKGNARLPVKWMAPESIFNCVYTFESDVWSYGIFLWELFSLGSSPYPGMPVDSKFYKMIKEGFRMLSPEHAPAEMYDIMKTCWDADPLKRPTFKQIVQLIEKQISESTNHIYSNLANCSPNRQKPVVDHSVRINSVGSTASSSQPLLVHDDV
each individual kinase of the panel (Homo sapiens, UniProt P07947), sequence (P07947 2-543 limits assumed): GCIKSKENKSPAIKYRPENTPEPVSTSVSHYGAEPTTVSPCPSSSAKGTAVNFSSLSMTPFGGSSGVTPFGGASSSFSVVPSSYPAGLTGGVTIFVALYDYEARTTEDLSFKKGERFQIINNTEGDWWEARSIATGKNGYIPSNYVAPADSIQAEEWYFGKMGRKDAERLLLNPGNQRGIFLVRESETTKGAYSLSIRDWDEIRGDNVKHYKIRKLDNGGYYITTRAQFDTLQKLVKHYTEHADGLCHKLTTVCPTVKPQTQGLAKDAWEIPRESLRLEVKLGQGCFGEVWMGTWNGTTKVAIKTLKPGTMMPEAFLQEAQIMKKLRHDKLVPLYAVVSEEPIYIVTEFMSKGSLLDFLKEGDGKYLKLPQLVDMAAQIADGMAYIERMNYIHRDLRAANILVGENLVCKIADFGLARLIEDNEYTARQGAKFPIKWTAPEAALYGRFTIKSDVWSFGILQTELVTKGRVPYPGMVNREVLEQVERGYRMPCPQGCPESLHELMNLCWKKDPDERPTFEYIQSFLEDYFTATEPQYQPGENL
each individual kinase of the panel (Homo sapiens, UniProt P28482), sequence (P28482 2-360 limits assumed): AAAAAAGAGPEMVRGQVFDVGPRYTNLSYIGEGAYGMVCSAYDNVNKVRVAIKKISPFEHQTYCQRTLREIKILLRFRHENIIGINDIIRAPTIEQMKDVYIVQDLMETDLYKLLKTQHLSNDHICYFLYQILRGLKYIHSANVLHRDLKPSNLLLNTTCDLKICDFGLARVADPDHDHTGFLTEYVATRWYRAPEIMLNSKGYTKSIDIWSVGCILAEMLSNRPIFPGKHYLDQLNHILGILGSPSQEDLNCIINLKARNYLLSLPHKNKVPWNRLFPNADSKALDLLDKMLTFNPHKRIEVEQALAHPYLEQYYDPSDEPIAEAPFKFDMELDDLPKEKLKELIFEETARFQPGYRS
each individual kinase of the panel (Homo sapiens, UniProt P10721, D816H), sequence (P10721 26-976 D816H limits assumed): as the sequence (P10721 26-976 V560G limits assumed) above, with G535V, D791H counted along it

Structure (SMILES): C#Cc1cccc(Nc2nc3cc(C(=O)O)ccc3c3cncnc23)c1 [drawing 1135]
- PRKG1 percentage of activity [1]: −5%
- ASK percentage of activity [2]: −16%
- ROCK-I percentage of activity [3]: 3%
- IKK alpha percentage of activity [4]: −1%
- TAK1 percentage of activity [5]: −1%
- MAPKAPK2 percentage of activity [6]: −7%
- PIM3 percentage of activity [7]: 13%
- mTOR percentage of activity [8]: 15%
- cKit(D816H) percentage of activity [9]: −1%
- FER percentage of activity [10]: −3%
- DYRK2 percentage of activity [11]: 50%
- DAPK3 percentage of activity [12]: 88%
- CK1 gamma 1 percentage of activity [13]: −5%
- RAF1 percentage of activity [14]: 31%
- PIM1 percentage of activity [15]: 73%
- RPS6KA1 percentage of activity [16]: 22%
- cKit(V560G) percentage of activity [17]: −11%
- RPS6KA3 percentage of activity [18]: 34%
- TYRO3 percentage of activity [19]: −9%
- MST1 percentage of activity [20]: 4%
- DRAK1 percentage of activity [21]: 38%
- TIE2 percentage of activity [22]: 1%
- ERK2 percentage of activity [23]: 5%
- MAPK2 percentage of activity [23]: −4%
- PDGFRB percentage of activity [24]: −10%
- EPHA5 percentage of activity [25]: −25%
- YES percentage of activity [26]: −9%

Structure (SMILES): NC(=O)c1ccc2c(c1)nc(Nc1cccc(Cl)c1)c1ccncc12 [drawing 1138]
- PRKG1 percentage of activity [1]: 4%
- ASK percentage of activity [2]: 2%
- ROCK-I percentage of activity [3]: 11%
- IKK alpha percentage of activity [4]: −13%
- TAK1 percentage of activity [5]: 12%
- MAPKAPK2 percentage of activity [6]: −2%
- EGFR(T790M, L858R) percentage of activity [27]: 48%
- cKit(D816H) percentage of activity [9]: 63%
- FER percentage of activity [10]: 8%
- DYRK2 percentage of activity [11]: 82%
- DAPK3 percentage of activity [12]: 34%
- CK1 gamma 1 percentage of activity [13]: 7%
- RAF1 percentage of activity [14]: 62%
- PIM1 percentage of activity [15]: 18%
- RPS6KA1 percentage of activity [16]: 55%
- cKit(V560G) percentage of activity [17]: 75%
- TYRO3 percentage of activity [19]: 2%
- MST1 percentage of activity [20]: 15%
- DRAK1 percentage of activity [21]: −5%
- TIE2 percentage of activity [22]: 45%
- ERK2 percentage of activity [23]: 15%
- PDGFRB percentage of activity [24]: 3%
- EPHA5 percentage of activity [25]: 8%
- EGFR(L858R) percentage of activity [28]: 63%
- YES percentage of activity [26]: 30%

Structure (SMILES): C#Cc1cccc(Nc2nc3cc(C(=O)O)ccc3c3cnccc23)c1 [drawing 1137]
- PRKG1 percentage of activity [1]: −4%
- ASK percentage of activity [2]: −1%
- ROCK-I percentage of activity [3]: 12%
- IKK alpha percentage of activity [4]: 3%
- TAK1 percentage of activity [5]: 6%
- MAPKAPK2 percentage of activity [6]: −12%
- PIM3 percentage of activity [7]: −2%
- EGFR(T790M, L858R) percentage of activity [27]: 26%
- cKit(D816H) percentage of activity [9]: 87%
- FER percentage of activity [10]: 6%
- DYRK2 percentage of activity [11]: 55%
- DAPK3 percentage of activity [12]: 87%
- CK1 gamma 1 percentage of activity [13]: 10%
- RAF1 percentage of activity [14]: 62%
- PIM1 percentage of activity [15]: 75%
- RPS6KA1 percentage of activity [16]: 54%
- cKit(V560G) percentage of activity [17]: 69%
- RPS6KA3 percentage of activity [18]: 53%
- TYRO3 percentage of activity [19]: 22%
- MST1 percentage of activity [20]: −3%
- DRAK1 percentage of activity [21]: 65%
- TIE2 percentage of activity [22]: −12%
- ERK2 percentage of activity [23]: 21%
- PDGFRB percentage of activity [24]: −2%
- EPHA5 percentage of activity [25]: 12%
- EGFR(L858R) percentage of activity [28]: 24%
- YES percentage of activity [26]: 34%

Structure (SMILES): Clc1ccccc1Nc1nc2c(-c3nnc[nH]3)cccc2c2cnccc12 [A]
- % Activity ([1]; PKG1α(h)): 40%
- % Activity ([2]; ASK1(h)): 92%
- % Activity ([3]; ROCK-I(h)): 94%
- % Activity ([4]; IKKα(h)): 108%
- % Activity ([5]; TAK1(h)): 28%
- % Activity ([7]; Pim-3(h)): 12%
- % Activity ([27]; EGFR(T790M,L858R)(h)): 20%
- % Activity ([8]; mTOR(h)): 99%
- % Activity ([9]; cKit(D816H)(h)): 8%
- % Activity ([10]; Fer(h)): 90%
- % Activity ([11]; DYRK2(h)): −4%
- % Activity ([12]; ZIPK(h)): 100%
- % Activity ([13]; CK1γ1(h)): 30%
- % Activity ([14]; c-RAF(h)): 66%
- % Activity ([15]; Pim-1(h)): 1%
- % Activity ([16]; Rsk1(h)): 6%
- % Activity ([17]; cKit(V560G)(h)): 38%
- % Activity ([18]; Rsk2(h)): 13%
- % Activity ([19]; Rse(h)): 109%
- % Activity ([20]; MST1(h)): 44%
- % Activity ([21]; DRAK1(h)): 75%
- % Activity ([22]; Tie2(h)): 108%
- % Activity ([24]; PDGFRβ(h)): 94%
- % Activity ([25]; EphA5(h)): 95%
- % Activity ([28]; EGFR(L858R)(h)): 56%
- % Activity ([26]; Yes(h)): 26%
